In experiment [1] the target is Potassium voltage-gated channel subfamily KQT member 2 (Rattus norvegicus, UniProt O88943, W236L). Briefly: potentiation of rat KCNQ2 current – cell-based, automated electrophysiology, mechanism study for KCNQ2 potentiator project, dose response (AID 2603). It is filed as functional.
Experiment [2] has as its target T1, Adenosylmethionine-8-amino-7-oxononanoate aminotransferase (Mycobacterium tuberculosis, UniProt P9WQ81).
T1 sequence (P9WQ81 whole entry): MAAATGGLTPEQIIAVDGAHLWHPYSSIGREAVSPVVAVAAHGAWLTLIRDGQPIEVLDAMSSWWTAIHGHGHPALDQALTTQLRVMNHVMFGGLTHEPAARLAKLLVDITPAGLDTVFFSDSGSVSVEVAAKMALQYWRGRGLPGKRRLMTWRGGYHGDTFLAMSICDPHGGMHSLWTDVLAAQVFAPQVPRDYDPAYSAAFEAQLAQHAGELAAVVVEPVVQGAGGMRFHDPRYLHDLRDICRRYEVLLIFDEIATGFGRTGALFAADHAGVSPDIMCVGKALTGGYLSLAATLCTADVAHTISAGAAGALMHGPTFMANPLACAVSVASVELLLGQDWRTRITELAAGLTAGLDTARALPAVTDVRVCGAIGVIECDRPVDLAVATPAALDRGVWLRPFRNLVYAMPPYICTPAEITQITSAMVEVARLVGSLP
Put plainly: Mycobacterium tuberculosis BioA enzyme inhibitor Measured in Biochemical System Using Plate Reader - 2163-02_Inhibitor_Dose_CherryPick_Activity. The experiment is classed as functional, Mycobacterium tuberculosis UT205.

Experiment [3] deals with Aspartyl aminopeptidase (Plasmodium falciparum 3D7, UniProt Q8I2J3). Put plainly: Counterscreen for inhibitors of M1 and M17 aminopeptidases: QFRET-based biochemical high throughput dose response assay for inhibitors of the Plasmodium falciparum M18 Aspartyl Aminopeptidase (PFM18AAP). [Related PubChem assays: 1619 (Screening assay (M17LAP inhibitors).), 1445 (Screening assay (M1AAP inhibitors).)].
Sequence of Aspartyl aminopeptidase (Q8I2J3 whole entry): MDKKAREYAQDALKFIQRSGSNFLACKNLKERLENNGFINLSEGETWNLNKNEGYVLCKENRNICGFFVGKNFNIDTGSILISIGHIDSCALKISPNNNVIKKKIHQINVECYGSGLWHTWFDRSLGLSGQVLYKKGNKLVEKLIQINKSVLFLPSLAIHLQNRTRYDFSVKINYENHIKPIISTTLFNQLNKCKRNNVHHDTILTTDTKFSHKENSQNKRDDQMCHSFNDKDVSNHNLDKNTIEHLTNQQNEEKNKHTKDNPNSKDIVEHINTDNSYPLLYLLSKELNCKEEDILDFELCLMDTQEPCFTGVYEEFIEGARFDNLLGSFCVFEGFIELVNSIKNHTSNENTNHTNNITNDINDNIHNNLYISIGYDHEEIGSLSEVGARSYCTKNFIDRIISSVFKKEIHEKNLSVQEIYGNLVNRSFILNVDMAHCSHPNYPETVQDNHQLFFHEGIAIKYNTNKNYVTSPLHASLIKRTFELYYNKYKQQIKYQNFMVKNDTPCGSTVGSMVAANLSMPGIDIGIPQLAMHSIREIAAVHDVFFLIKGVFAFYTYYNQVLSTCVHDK

Experiment [4] addresses T2, Aminopeptidase N (Plasmodium falciparum FcB1/Columbia, UniProt O96935).
T2 sequence (O96935 whole entry): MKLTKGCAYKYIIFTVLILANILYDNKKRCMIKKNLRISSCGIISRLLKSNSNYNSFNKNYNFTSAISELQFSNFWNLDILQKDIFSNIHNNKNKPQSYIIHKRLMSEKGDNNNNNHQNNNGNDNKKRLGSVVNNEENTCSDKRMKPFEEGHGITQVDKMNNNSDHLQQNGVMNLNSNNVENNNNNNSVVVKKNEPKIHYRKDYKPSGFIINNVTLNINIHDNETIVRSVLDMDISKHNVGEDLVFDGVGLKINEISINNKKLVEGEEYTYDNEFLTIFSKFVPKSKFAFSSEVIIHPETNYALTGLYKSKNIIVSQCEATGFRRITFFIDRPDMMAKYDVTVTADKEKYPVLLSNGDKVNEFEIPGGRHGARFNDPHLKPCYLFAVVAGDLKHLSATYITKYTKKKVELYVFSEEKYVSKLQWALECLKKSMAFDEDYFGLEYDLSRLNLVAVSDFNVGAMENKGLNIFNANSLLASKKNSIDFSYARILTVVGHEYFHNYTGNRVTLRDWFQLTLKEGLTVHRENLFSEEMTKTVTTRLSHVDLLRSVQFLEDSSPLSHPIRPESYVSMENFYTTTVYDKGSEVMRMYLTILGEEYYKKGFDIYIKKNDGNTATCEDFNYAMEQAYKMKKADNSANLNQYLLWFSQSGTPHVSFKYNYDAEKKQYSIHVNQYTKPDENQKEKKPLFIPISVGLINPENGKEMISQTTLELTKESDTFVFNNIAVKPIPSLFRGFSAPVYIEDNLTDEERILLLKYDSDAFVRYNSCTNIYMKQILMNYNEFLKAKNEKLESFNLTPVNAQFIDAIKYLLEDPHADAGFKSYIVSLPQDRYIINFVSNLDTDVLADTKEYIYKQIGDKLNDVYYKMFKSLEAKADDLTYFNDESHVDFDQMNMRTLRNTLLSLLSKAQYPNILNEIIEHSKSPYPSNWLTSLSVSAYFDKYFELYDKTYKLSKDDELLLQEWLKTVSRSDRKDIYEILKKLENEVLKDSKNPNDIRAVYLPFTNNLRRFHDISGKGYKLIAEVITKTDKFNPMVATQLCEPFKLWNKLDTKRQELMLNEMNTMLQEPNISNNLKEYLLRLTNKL
Put plainly: malaria alanyl aminopeptidase activity blockers – biochemical, fluorogenic H-Leu-NHMec substrate, 1536-well (AID 1445). On the set-up: species or system Plasmodium falciparum 3D7, 3D7.

Experiment [5] addresses Procathepsin L (Homo sapiens, UniProt P07711). Briefly: CTSL1 protease inhibition – biochemical, QFRET, 1536-well, counter-screen for M1/M17 aminopeptidase inhibitor project, dose response (AID 2214).
The nature of experiment [6]: Counterscreen for IDE inhibitors: Luminescence-based cell-based high throughput dose response assay to identify compounds that are cytotoxic to HEK cells. [Related pubchem assays: 434962 (Primary screen (IDE inhibitors in singlicate)), 449730 (Counterscreen (Cytotoxicity in triplicate)), 435028 (Confirmation (IDE inhibitors in triplicate)) …. The experiment is classed as functional. Particulars: HEK293.

Experiment [7] addresses T3, Insulin-degrading enzyme (Homo sapiens, UniProt P14735).
T3 sequence (P14735 whole entry): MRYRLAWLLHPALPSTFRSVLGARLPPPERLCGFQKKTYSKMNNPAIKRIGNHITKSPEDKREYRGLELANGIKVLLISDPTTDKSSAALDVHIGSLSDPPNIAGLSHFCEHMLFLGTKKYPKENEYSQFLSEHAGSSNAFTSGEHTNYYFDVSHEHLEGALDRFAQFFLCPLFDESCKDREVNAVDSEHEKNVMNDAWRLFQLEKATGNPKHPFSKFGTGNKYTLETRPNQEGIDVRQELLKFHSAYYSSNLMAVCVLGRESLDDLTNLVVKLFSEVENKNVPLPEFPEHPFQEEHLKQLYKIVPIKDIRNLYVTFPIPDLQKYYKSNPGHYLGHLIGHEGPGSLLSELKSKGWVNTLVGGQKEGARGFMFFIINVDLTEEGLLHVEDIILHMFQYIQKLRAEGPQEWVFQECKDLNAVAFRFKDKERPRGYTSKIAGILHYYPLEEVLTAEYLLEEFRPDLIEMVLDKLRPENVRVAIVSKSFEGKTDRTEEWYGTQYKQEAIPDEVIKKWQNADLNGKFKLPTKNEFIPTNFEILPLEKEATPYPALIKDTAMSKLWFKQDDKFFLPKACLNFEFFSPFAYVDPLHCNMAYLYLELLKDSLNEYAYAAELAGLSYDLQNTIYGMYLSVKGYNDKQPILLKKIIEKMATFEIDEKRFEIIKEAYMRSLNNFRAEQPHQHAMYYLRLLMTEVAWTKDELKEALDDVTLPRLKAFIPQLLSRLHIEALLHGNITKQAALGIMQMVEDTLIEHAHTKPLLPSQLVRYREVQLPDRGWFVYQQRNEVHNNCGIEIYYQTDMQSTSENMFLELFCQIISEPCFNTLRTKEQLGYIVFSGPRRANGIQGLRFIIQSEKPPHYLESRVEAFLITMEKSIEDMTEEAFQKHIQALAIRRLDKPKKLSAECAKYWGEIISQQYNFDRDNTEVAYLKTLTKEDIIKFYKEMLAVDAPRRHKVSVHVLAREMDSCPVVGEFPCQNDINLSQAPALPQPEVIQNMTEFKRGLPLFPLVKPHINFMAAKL
Put plainly: Dose Response: Fluorescence polarization-based cell-based high throughput dose response assay for inhibitors of insulin-degrading enzyme (IDE). [Related pubchem assays: 434962 (Primary screen (IDE inhibitors in singlicate)), 449730 (Counterscreen (Cytotoxicity in triplicate)), 435028 (Confirmation (IDE inhibitors in triplicate)), 434984 (Summary …. The experiment is classed as functional.

The nature of experiment [8]: mitochondrial function rescue without frataxin homolog – Friedreich's ataxia, plus single-dose screen, dose response (AID 1465).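 Further: yeast depleted of Yfh1p frataxin homolog grown on glycerol needing respiration; WST-1 tetrazolium dye reduction as measure of cellular dehydrogenase metabolic activity.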 The experiment is classed as functional.
In experiment [9] the target is NS3 (Hepatitis C virus, UniProt A3EZJ3). Put plainly: PubChem AID 2173. Also on record: species or system Hepacivirus hominis.
Sequence of NS3 (A3EZJ3 whole entry): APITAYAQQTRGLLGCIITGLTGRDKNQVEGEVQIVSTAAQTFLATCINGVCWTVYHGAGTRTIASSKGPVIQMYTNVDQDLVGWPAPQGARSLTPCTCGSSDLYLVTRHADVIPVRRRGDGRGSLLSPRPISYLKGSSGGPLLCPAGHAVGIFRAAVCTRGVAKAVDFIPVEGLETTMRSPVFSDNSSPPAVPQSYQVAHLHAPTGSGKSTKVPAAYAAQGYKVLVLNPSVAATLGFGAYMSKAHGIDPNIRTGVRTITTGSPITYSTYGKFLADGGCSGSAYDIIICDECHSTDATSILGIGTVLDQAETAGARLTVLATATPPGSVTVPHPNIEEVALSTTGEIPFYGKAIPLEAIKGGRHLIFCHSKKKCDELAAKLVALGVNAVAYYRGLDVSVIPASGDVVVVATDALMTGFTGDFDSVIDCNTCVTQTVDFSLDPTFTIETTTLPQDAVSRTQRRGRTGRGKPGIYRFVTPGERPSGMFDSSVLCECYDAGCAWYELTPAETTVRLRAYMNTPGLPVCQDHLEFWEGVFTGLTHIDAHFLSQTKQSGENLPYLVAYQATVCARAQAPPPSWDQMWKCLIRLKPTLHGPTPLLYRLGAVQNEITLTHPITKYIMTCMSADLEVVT
In experiment [10] the target is T4, Bcl-2-like protein 10 (Homo sapiens, UniProt Q9HD36).
T4 sequence (Q9HD36 whole entry): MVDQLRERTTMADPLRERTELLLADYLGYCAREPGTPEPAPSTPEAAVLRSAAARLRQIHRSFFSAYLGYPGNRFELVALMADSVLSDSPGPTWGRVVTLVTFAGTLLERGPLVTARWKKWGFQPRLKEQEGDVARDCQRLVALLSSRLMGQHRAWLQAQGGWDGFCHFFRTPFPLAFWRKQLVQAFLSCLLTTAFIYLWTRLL
Put plainly: Concentration-response of Bcl-B inhibitors by biochemical FP with TR3 (AID 1243). The experiment is classed as functional.

In experiment [11] the target is Sphingosine 1-phosphate receptor 2 (Homo sapiens, UniProt O95136). Briefly: Dose Response Cell-Based Assay for Agonists of the Sphingosine 1-Phosphate Receptor 2 (S1P2): Purchased Analogues. [Related pubchem assays: 1192, 373, 439 ]. The experiment is classed as functional.
Sequence of Sphingosine 1-phosphate receptor 2 (O95136 whole entry): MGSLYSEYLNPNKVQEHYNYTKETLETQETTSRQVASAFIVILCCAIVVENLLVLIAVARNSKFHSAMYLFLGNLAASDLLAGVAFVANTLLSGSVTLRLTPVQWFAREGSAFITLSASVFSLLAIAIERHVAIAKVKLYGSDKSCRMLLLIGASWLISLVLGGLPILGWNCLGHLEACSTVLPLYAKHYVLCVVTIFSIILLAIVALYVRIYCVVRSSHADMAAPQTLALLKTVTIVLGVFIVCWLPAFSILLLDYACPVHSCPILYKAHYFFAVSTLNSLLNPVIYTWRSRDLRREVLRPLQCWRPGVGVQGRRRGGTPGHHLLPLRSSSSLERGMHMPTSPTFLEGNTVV
Experiment [12] addresses Sphingosine 1-phosphate receptor 1 (Homo sapiens, UniProt P21453). Briefly: Dose Response Cell-Based Assay for Agonists of the Sphingosine 1-Phosphate Receptor 1 (S1P1): Purchased Analogues. [Related pubchem assays: 1192, 373, 439 ]. The experiment is classed as functional.
For experiment [13], the target named is Sphingosine 1-phosphate receptor 3 (Homo sapiens, UniProt Q99500). Briefly: Dose Response Cell-Based Assay for Agonists of the Sphingosine 1-Phosphate Receptor 3 (S1P3): Purchased Analogues. [Related pubchem assays: 373, 439 ]. It is filed as functional.
Sequence of Sphingosine 1-phosphate receptor 3 (Q99500 whole entry): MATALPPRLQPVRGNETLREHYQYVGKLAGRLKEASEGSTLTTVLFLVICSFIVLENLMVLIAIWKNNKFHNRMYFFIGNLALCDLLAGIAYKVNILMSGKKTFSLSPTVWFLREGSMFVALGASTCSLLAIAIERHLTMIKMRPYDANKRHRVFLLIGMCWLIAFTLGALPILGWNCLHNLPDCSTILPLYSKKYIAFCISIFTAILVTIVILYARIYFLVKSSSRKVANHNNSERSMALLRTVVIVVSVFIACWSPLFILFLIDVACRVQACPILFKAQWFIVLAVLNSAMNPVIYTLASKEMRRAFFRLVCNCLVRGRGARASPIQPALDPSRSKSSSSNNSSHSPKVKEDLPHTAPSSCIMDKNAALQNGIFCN
The subject of experiment [14] is HeLa. Put plainly: Cytotoxicity counterscreen assay for transcriptional activators of heat shock protein 70 (Hsp70). [Related pubchem assays: 1203, 1252 ]. The settings on record: Homo sapiens. It is filed as functional.
The target in experiment [15] is T5, Heat shock 70 kDa protein 1A (Homo sapiens, UniProt P0DMV8). Put plainly: small-molecule inhibition of Hsp70 – biochemical, TR-FRET (AID 786).
T5 sequence (P0DMV8 whole entry): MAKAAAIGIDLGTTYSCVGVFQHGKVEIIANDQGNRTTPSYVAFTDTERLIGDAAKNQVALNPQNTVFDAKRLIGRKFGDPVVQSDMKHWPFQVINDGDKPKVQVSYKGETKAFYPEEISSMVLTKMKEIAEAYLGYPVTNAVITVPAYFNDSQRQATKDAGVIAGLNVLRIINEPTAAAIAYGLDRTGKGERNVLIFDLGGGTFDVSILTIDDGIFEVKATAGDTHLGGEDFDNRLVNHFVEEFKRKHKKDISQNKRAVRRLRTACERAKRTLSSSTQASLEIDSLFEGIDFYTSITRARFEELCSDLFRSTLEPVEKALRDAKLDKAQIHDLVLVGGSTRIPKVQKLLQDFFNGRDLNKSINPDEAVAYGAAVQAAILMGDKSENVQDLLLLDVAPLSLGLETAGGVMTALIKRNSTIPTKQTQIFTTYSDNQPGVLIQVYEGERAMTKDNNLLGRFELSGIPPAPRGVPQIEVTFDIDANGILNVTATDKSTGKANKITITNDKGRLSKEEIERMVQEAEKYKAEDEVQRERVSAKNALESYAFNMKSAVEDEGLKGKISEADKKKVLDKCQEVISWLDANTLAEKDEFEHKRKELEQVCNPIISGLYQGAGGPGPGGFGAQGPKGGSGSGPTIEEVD
The target of experiment [16] is T5, Heat shock 70 kDa protein 1A. Briefly: small molecules displacing fluorescent ligand from Hsp70 – biochemical, fluorescence polarization, primary screen (AID 583).
The target in experiment [17] is Estrogen receptor (Homo sapiens, UniProt P03372).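 Further: potency for inhibiting coactivator peptide recruitment to the receptor.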
Sequence of Estrogen receptor (P03372 whole entry): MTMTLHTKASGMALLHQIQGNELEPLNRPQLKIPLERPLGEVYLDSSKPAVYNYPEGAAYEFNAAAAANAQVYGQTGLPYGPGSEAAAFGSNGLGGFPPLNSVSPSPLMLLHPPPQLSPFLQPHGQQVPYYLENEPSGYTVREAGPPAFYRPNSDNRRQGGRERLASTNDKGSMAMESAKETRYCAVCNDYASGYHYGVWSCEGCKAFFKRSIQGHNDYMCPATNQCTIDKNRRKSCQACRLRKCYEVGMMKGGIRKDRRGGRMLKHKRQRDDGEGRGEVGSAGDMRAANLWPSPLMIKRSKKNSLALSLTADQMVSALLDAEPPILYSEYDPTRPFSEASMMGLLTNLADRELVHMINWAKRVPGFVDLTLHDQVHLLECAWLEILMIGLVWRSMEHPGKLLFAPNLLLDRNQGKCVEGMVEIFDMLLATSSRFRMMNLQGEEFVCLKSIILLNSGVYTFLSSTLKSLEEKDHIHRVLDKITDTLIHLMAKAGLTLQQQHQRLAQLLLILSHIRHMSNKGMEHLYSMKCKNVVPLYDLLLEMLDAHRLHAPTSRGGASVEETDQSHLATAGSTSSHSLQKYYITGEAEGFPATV
Experiment [18] deals with T6, Microphthalmia-associated transcription factor (Homo sapiens, UniProt O75030).
T6 sequence (O75030 whole entry): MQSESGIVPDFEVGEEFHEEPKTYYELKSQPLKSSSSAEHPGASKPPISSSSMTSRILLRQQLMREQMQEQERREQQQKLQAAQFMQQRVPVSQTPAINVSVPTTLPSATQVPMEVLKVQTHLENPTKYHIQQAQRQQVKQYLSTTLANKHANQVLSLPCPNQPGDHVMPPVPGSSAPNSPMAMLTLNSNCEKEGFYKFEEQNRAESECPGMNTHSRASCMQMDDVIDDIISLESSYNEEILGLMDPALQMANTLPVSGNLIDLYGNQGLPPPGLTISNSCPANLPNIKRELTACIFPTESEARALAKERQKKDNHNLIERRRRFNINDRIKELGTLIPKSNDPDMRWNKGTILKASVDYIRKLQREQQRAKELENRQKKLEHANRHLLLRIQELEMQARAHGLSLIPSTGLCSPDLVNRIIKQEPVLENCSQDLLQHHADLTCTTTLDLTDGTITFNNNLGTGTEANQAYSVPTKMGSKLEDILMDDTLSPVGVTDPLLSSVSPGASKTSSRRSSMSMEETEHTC
Briefly: reducers of TRPM1 reporter luminescence, concentration series – cell-based, SK-MEL-5, cherry-picked, set 3, MITF inhibitor project, dose response (AID 493073).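 Further: SK-MEL-5 melanoma cells with luciferase driven by the MITF target TRPM1 promoter.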 The experiment is classed as functional.

Molecules are shown by their SMILES. The source made the active and inactive calls.
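Wherever CC50 is given: cells exposed to compound for 16 hours before readout.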

Sequence of Potassium voltage-gated channel subfamily KQT member 2 (O88943 whole entry W236L): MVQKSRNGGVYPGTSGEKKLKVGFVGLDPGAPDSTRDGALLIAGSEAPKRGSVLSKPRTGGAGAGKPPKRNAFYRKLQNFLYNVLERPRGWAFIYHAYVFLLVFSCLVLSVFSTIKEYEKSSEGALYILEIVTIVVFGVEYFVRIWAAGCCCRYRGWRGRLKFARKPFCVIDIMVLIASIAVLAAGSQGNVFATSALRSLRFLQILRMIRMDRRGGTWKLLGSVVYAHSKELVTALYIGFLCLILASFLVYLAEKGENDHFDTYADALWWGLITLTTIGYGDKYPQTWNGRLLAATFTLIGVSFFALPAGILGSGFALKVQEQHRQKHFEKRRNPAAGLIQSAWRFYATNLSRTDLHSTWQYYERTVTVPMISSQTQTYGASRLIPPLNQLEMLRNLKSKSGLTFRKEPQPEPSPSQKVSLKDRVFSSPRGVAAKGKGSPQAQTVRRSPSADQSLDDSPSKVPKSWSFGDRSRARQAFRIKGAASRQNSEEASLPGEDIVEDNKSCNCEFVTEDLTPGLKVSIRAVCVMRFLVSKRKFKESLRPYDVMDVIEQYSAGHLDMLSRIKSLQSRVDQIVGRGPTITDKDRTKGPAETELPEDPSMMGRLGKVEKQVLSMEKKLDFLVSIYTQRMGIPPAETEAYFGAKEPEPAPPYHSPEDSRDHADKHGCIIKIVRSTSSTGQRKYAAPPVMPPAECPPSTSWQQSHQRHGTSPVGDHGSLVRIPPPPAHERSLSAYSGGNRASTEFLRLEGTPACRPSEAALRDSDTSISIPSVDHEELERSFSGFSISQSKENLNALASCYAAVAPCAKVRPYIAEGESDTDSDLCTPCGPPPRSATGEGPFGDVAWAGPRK
Sequence of Sphingosine 1-phosphate receptor 1 (P21453 whole entry): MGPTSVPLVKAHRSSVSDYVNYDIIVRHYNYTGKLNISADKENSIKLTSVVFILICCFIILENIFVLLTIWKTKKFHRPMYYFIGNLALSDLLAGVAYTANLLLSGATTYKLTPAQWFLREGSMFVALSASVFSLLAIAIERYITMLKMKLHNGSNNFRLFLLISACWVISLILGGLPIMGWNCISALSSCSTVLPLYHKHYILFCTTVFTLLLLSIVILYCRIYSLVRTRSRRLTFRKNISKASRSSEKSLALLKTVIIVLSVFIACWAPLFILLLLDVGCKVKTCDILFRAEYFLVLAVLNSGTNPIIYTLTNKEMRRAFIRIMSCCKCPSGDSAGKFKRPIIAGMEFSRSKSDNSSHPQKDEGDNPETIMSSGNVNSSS
Sequence of Procathepsin L (P07711 whole entry): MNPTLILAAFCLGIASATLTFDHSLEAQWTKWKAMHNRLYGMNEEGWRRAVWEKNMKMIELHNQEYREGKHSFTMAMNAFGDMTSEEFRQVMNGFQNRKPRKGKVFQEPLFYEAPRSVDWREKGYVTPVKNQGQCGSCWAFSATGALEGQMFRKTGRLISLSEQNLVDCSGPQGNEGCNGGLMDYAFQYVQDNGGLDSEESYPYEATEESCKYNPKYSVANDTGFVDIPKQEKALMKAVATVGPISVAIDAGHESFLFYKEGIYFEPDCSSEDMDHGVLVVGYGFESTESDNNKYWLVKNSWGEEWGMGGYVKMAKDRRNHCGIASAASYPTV

With `O=C(Nc1cccnc1)c1ccc(Cl)c(Cl)c1`, the EC50 in experiment [1] was 26.2 µM (active). For the same compound, in [2], the AC50 was 3.94 µM (active).

As for `O=C(NCc1ccco1)C1CCCN(S(=O)(=O)c2cccc3nonc23)C1` (stereo not drawn), the figures for the IC50 in experiment [3], in experiment [4] and in experiment [5] were > 73.5 µM (not active), 18.6 µM (active) and > 59.6 µM (not active), respectively.

`Cc1ccccc1N1C(=O)NC(=O)/C(=C/c2ccc(N3CCOCC3)o2)C1=O`: the figures for the IC50 in [6] and in experiment [7] were > 55.6 µM (not active) and 30.5 µM (not active), respectively. For the same compound, in [8], the EC50 is > 100 µM (active).

Regarding `Nc1c(C(=O)Nc2ccccc2F)sc2nc(-c3ccco3)ccc12`, the half-maximal inhibitory concentration (IC50) in [9] is on record as > 36.3 µM (not active).

For `Cc1cc(I)c2c(c1)C1C=CCC1C(C(=O)O)N2` (stereo not drawn), the EC50 in experiment [10] was 20.7 µM (active).

Turning to `O=C(NC1CCCCC1)c1cc(-c2ccccc2)on1`, the EC50 in experiment [11] was > 10 µM (not active); in experiment [12], 897 nM (active); in [13], > 50 µM (not active).

As for `CCOC(=O)C1(C/C(C)=N/NC(N)=O)CC(C)OC1=O` (stereo not drawn), in experiment [14], the CC50 is given as > 99 µM (not active).

Regarding `CCOC(=O)C1CCN(C(=O)Cc2c(F)cccc2Cl)CC1`, the concentration for half-maximal inhibition (IC50) in experiment [15] and in experiment [16] was > 100 µM (not active) in each case.

Regarding `O=C(N/N=C/c1cccc(Oc2ccc([N+](=O)[O-])cc2[N+](=O)[O-])c1)c1cncc(Br)c1`, the IC50 in experiment [17] is 27.9 µM (active). Also, the AC50 in experiment [18] is 243 µM (active).

The values above are taken from ChEMBL document CHEMBL1201862, “PubChem BioAssay data set” (2004).
